Like-named read-outs stand apart in the source and are kept apart here.
Key:
Sa = details: Table 7; cited from earlier work
[1] = system: Pseudomonas aeruginosa (Pa); details: cited from earlier work
[2] = system: methicillin resistant Staphylococcus aureus (MRSA); details: cited from earlier work
[3] = system: Streptococcus pneumonia (Sp); details: cited from earlier work; for Sp MIC90: Table 7; for SP MIC90: Table 6
[4] = system: P. aeruginosa strain PAM 1723; assay: Mouse lung infection efficacy model; details: Pseudomonas aeruginosa, PAM1723, in Mus musculus
Procedure: The inoculum is adjusted to ca. 5×10^6 CFU/ml by correlation of absorbance at 600 nm with predetermined plate counts. […] On day 5, mice are infected by an intratracheal instillation of 0.05 ml of inoculum while under isoflurane anesthesia (5% isoflurane in oxygen running at 4 L/min). […] Mice are sacrificed 1 and 4 hours after treatment, their lungs removed, homogenized and plated to determine colony counts.

[5] = Rat pharmacokinetic model (IV vs microspray aerosol, intratracheal); assay type: in vivo, rats; details: 10 mg/kg; for AUC / AUC(0-inf) / half-life: rat; for AUC: epithelial lining fluid (ELF); for AUC(0-inf) / half-life: serum; for half-life: read-out: Serum t1/2 (converted)
Procedure: […] Blood samples are taken at various times over 3 hours to determine the plasma pharmacokinetic parameters. […] The plasma and tissue concentrations are determined by an HPLC method and the data are then fit using WinNonlin.

physchem = assay: physchem
Procedure: A 2 to 20 mg sample of each antibiotic was weighed into sterile plastic tubes and brought up with a volume of sterile water to make a 10 mg/mL solution or suspension of the antibiotic. Samples were incubated for approximately 10 minutes at room temperature with occasional mixing, prior to further handling.
The insoluble solutions were titrated with 1N HCl to the point of visible solubility, and the pH of the solubilized solution determined.
After the pH adjustment, and following a further 10 minute incubation period with occasional mixing, the final appearance of the solutions was determined, just prior to the aerosol tolerability and taste test.

MSSA = details: Table 6; cited from earlier work
[6] = in vivo
Procedure: In the second test, the tolerability and taste of a small aerosol sample from a 0.5 ml aliquot of the test formulation was determined in a single healthy human volunteer, following nebulization in a PARI eFlow nebulizer (Table 12).
The tolerability and taste of the drug during a very brief administration period and for a period of 10 minutes post administration were monitored. Tolerability parameters were of the following types: (i) cough, cough sensation, or sneezing (ii) irritation, burning or tightness of throat, (ii) irritation or runniness in nasal passages or eyes, (iii) irritation, burning or tightness of the lungs or shortness of breadth, and (iv) dizziness, headache, nausea or other systemic effects.

CN1CCN(c2c(F)cc3c(=O)c(C(=O)O)cn(CCF)c3c2F)CC1 [Fleroxacin]
Sa MIC90 (Sa): 1 µg/mL
Pa MIC90 ([1]; Table 7): 32 µg/mL
MRSA MIC90 ([2]; Table 7): >4 µg/mL
Sp MIC90 [3]: 8 µg/mL

N[C@@H]1CN(c2c(F)cc3c(=O)c(C(=O)O)cn([C@@H]4C[C@@H]4F)c3c2Cl)CC12CC2 [Sitafloxacin]
Sa MIC90 (Sa): 0.125 µg/mL
Pa MIC90 ([1]; Table 7): 8 µg/mL
MRSA MIC90 ([2]; Table 7): 4 µg/mL
Sp MIC90 [3]: 0.06 µg/mL

NC[C@H]1O[C@H](O[C@H]2[C@H](O)[C@@H](O[C@H]3O[C@H](CO)[C@@H](O)[C@H](N)[C@H]3O)[C@H](N)C[C@@H]2N)[C@H](N)C[C@@H]1O [Tobramycin]
log reduction at 5 mg/kg ([4]; 1 h, read-out: DeltaLOG CPU 1 hr, route IT, dose 5 mg/kg, 1 hr post-drug administration): 1.59
log reduction at 5 mg/kg ([4]; 4 h, read-out: DeltaLOG CPU 4 hr, route IT, dose 5 mg/kg, 4 hr post-drug administration): 0.94
log reduction at 5 mg/kg ([4]; ip, 1 h, read-out: DeltaLOG CPU 1 hr, route IP, dose 5 mg/kg, 1 hr post-drug administration): 0.7
log reduction at 5 mg/kg ([4]; ip, 4 h, read-out: DeltaLOG CPU 4 hr, route IP, dose 5 mg/kg, 4 hr post-drug administration): -0.29
F, % from Lung vs. IV ([5]; IT): 81%
AUC ([5]; inhaled or intranasal, IT): 5150 µg·h/mL
AUC ([5]; iv): 27.6 µg·h/mL
AUC(0-inf) ([5]; inhaled or intranasal, IT): 13.8 µg·h/mL
half-life ([5]; inhaled or intranasal, IT): 60 min
AUC(0-inf) ([5]; iv): 15.7 µg·h/mL
half-life ([5]; iv): 30 min

C[C@H]1COc2c(C3(N)CC3)c(F)cc3c(=O)c(C(=O)O)cn1c23 [Pazufloxacin]
Sa MIC90 (Sa): 0.5 µg/mL
Pa MIC90 ([1]; Table 7): >32 µg/mL
MRSA MIC90 ([2]; Table 7): >16 µg/mL
Sp MIC90 [3]: 4 µg/mL

Cc1oc(=O)oc1CN1CCN(c2cc3c(cc2F)c(=O)c(C(=O)O)c2n3C(C)S2)CC1 (stereo not drawn) [Prulifloxacin]
Sa MIC90 (Sa): 0.25 µg/mL
Pa MIC90 ([1]; Table 7): 16 µg/mL
MRSA MIC90 ([2]; Table 7): 32 µg/mL
Sp MIC90 [3]: 1 µg/mL

CCN1CCN(c2cc3c(cc2F)c(=O)c(C(=O)O)cn3C2CC2)CC1 [Enrofloxacin]
Sa MIC90 (Sa): 0.125 µg/mL
Pa MIC90 ([1]; Table 7): >16 µg/mL
MRSA MIC90 ([2]; Table 7): 8 µg/mL
Sp MIC90 [3]: 1 µg/mL

CN1CCN(c2cc3c(cc2F)c(=O)c(C(=O)O)cn3-c2ccc(F)cc2)CC1 [Difloxacin]
Sa MIC90 (Sa): 0.5 µg/mL
Pa MIC90 ([1]; Table 7): 32 µg/mL
Sp MIC90 [3]: 2 µg/mL

C[C@H]1NCc2cc(-c3ccc4c(=O)c(C(=O)O)cn(C5CC5)c4c3OC(F)F)ccc21 [Garenoxacin]
Sa MIC90 (Sa): 0.06 µg/mL
Pa MIC90 ([1]; Table 7): >32 µg/mL
MRSA MIC90 ([2]; Table 7): 8 µg/mL
Sp MIC90 [3]: 0.06 µg/mL

NC1CCN(c2c(F)cc3c(=O)c(C(=O)O)cn(C4CC4)c3c2Cl)C1 (stereo not drawn) [Clinafloxacin]
log reduction at 10 mg/kg ([4]; 1 h, read-out: DeltaLOG CPU 1 hr, route IT, dose 10 mg/kg, 1 hr post-drug administration): 2.71
log reduction at 25 mg/kg ([4]; 1 h, read-out: DeltaLOG CPU 1 hr, route IT, dose 25 mg/kg, 1 hr post-drug administration): 2.86
log reduction at 10 mg/kg ([4]; 4 h, read-out: DeltaLOG CPU 4 hr, route IT, dose 10 mg/kg, 4 hr post-drug administration): 2.4
log reduction at 25 mg/kg ([4]; 4 h, read-out: DeltaLOG CPU 4 hr, route IT, dose 25 mg/kg, 4 hr post-drug administration): 2.47
log reduction at 10 mg/kg ([4]; ip, 1 h, read-out: DeltaLOG CPU 1 hr, route IP, dose 10 mg/kg, 1 hr post-drug administration): 0.96
log reduction at 25 mg/kg ([4]; ip, 1 h, read-out: DeltaLOG CPU 1 hr, route IP, dose 25 mg/kg, 1 hr post-drug administration): 1.32
log reduction at 10 mg/kg ([4]; ip, 4 h, read-out: DeltaLOG CPU 4 hr, route IP, dose 10 mg/kg, 4 hr post-drug administration): 1.39
log reduction at 25 mg/kg ([4]; ip, 4 h, read-out: DeltaLOG CPU 4 hr, route IP, dose 25 mg/kg, 4 hr post-drug administration): 1.33
Sa MIC90 (Sa): 0.06 µg/mL
Pa MIC90 ([1]; Table 7): 4 µg/mL
MRSA MIC90 ([2]; Table 7): 2 µg/mL
Sp MIC90 [3]: 0.06 µg/mL
AUC ([5]; inhaled or intranasal, IT): 30.8 µg·h/mL
AUC(0-inf) ([5]; inhaled or intranasal, IT): 3.2 µg·h/mL
half-life ([5]; inhaled or intranasal, IT): 44.4 min

Cc1c(F)c(N2CCNC(C)C2)cc2c1c(=O)c(C(=O)O)cn2C1CC1 (stereo not drawn) [Grepafloxacin]
Sa MIC90 (Sa): 0.125 µg/mL
Pa MIC90 ([1]; Table 7): >32 µg/mL
MRSA MIC90 ([2]; Table 7): 32 µg/mL
Sp MIC90 [3]: 0.5 µg/mL

CN1C[C@@H]2C[C@H]1CN2c1cc2c(cc1F)c(=O)c(C(=O)O)cn2C1CC1 [Danofloxacin]
Sa MIC90 (Sa): 0.125 µg/mL
Pa MIC90 ([1]; Table 7): >16 µg/mL

Cc1c(N2C[C@@H](N)C3(CC3)C2)c(F)c(N)c2c(=O)c(C(=O)O)cn(C3CC3)c12 [Olamufloxacin]
Sa MIC90 (Sa): 1 µg/mL
Pa MIC90 ([1]; Table 7): 16 µg/mL
MRSA MIC90 ([2]; Table 7): 2 µg/mL
Sp MIC90 [3]: 0.06 µg/mL

CCn1cc(C(=O)O)c(=O)c2cc(F)c(N3CCNCC3)nc21 [Enoxacin]
Sa MIC90 (Sa): 1 µg/mL
Pa MIC90 ([1]; Table 7): >32 µg/mL
MRSA MIC90 ([2]; Table 7): >4 µg/mL
Sp MIC90 [3]: 16 µg/mL

CN1CCN(c2c(F)cc3c(=O)c(C(=O)O)cn4c3c2OCN4C)CC1 [Marbofloxacin]
Pa MIC90 ([1]; Table 6): 8 µg/mL
Initial Solution pH (physchem; 10 mg/mL in sterile water): 6.5
Initial Solution Appearance (physchem; 10 mg/mL in sterile water, room temperature): white, very turbid, visible
After pH Adjustment Appearance (physchem; 10 mg/mL, titrated with 1N HCl): White, turbid, visible
After pH Adjustment pH (physchem; 10 mg/mL, titrated with 1N HCl): 1.5
pH of final solution (physchem; final solution, 10 mg/mL): 1.5
solubility on titration with 1N HCl (physchem; pH 1.5): solubility was not reached by pH 1.5
MSSA MIC90 (MSSA): 2 µg/mL
SP MIC90 [3]: 2 µg/mL

O=C(O)c1cn(-c2ccc(F)cc2)c2cc(N3CCNCC3)c(F)cc2c1=O [Sarafloxacin]
Sa MIC90 (Sa): 0.25 µg/mL
Pa MIC90 ([1]; Table 7): >16 µg/mL
MRSA MIC90 ([2]; Table 7): >16 µg/mL

CCn1cc(C(=O)O)c(=O)c2cc(F)c(N3CCN(C)CC3)cc21 [Pefloxacin]
Pa MIC90 ([1]; Table 6): >32 µg/mL
MRSA MIC90 ([2]; Table 6): >32 µg/mL
MSSA MIC90 (MSSA): 2 µg/mL
SP MIC90 [3]: 32 µg/mL

COc1c(N2C[C@@H]3CCCN[C@@H]3C2)c(F)cc2c(=O)c(C(=O)O)cn(C3CC3)c12 [Moxifloxacin]
Aerosol Tolerability and Taste [6]: moderate bitter unpleasant taste, some
cough on aerosol exposure [6]: associated with cough
solubility/pH characteristics (physchem): best solubility/pH characteristics
solubility at 10 min (physchem; aqueous buffer, thermodynamic from solid): > 10000 µg/mL

CCn1cc(C(=O)O)c(=O)c2cc(F)c(N3CCNCC3)cc21 [Norfloxacin]
Sa MIC90 (Sa): 1 µg/mL
Pa MIC90 ([1]; Table 7): 16 µg/mL
MRSA MIC90 ([2]; Table 7): >4 µg/mL
Sp MIC90 [3]: 16 µg/mL
F, % from Lung vs. IV ([5]; IT): 100%
AUC ([5]; inhaled or intranasal, IT): 41.7 µg·h/mL
AUC ([5]; iv): 3.27 µg·h/mL

CN1CCN(c2c(F)cc3c(=O)c(C(=O)O)cn4c3c2SCC4)CC1 [Rufloxacin]
Sa MIC90 (Sa): 2 µg/mL
Pa MIC90 ([1]; Table 7): 32 µg/mL
MRSA MIC90 ([2]; Table 7): 64 µg/mL
Sp MIC90 [3]: 32 µg/mL

CNC1CCCN(c2c(F)cc3c(=O)c(C(=O)O)cn(C4CC4)c3c2OC)C1 (stereo not drawn) [Balofloxacin]
Sa MIC90 (Sa): 0.25 µg/mL
Pa MIC90 ([1]; Table 7): 32 µg/mL
MRSA MIC90 ([2]; Table 7): 8 µg/mL
Sp MIC90 [3]: 0.5 µg/mL
